This passage reports IC50 results from patent publication US5179105A, “Phenoxyacetic acid compounds, method for production thereof, and pharmaceutical preparations containing same” (Terumo Kabushiki Kaisha, priority 1990, dated 1993).

The structures appear in SMILES notation.

The first test deals with leukotriene D4. Briefly: in vitro antagonistic action to leukotriene D4 (LTD4-induced shrinkage of excised bronchial segments). Also noted: species or system Hartley type male guinea pigs. Conditions: guinea pig bronchial segments, leukotriene D4 10^-8 M. How it is done:
(§1) The IC50 values indicative of the in vitro antagonistic actions of the compounds of this invention to thromboxane A2 and leukotriene D4 were determined by the use of the following test system.
(§2) Bronchial segments and ileal segments excised from Hartley type male guinea pigs 350 to 450 g in body weight were suspended under respective loads of 0.3 g and 0.5 g in Magnus baths containing Tyrode solution and kept exposed to passage therethrough of a mixed gas consisting of 95% of oxygen and 5% of carbon dioxide. After the suspended segments were stabilized for about one hour, U-46619 (equivalent to thromboxane A2, produced by Kaiman K. K.) was added in a concentration of 10^-7 to the bath containing the bronchial segments and leukotriene D4 (produced by Wako Pure Chemicals Co., Ltd.) in a concentration of 10^-8 M to the bath containing the […] contrast to the amounts of shrinkage produced in the bronchial segments and ileal segments, the amounts of shrinkage produced by U-46619 in the bronchial segments and the amounts of shrinkage produced by leukotriene D4 in the ileal segments both in the presence of the compounds of this invention added in varying concentrations were measured. The IC50 values were computed based on the results of the measurement.
In turn, `CCCc1c(OCCCC(=O)Nc2cc(CCCS(=O)(=O)c3ccc(Cl)cc3)ccc2OCC(=O)O)ccc(C(C)=O)c1O` came in with an IC50 of 70 nM.

Take `O=C(O)COc1ccc(CCCS(=O)(=O)c2ccc(Cl)cc2)cc1NC(=O)c1cccc(OCc2ccc3ccccc3n2)c1` [drawing 21]: the IC50 was determined as 4 nM.

For `O=C(O)COc1ccc(CCCS(=O)(=O)c2ccc(Cl)cc2)cc1NC(=O)c1cccc(OCc2ccc3ccccc3n2)c1` [drawing 22], 150 nM corresponded to half-maximal inhibition (IC50).

A further test concerns thromboxane A2. Briefly: in vitro antagonistic action to thromboxane A2 (U-46619-induced shrinkage of excised bronchial segments). Set-up: species or system Hartley type male guinea pigs. As to conditions: guinea pig bronchial segments, U-46619 10^-7; read-out: antagonistic action to Tx A2 (IC50). The method, then:
as §1, §2
Take `CCCc1c(OCC(=O)Nc2cc(CCCS(=O)(=O)c3ccc(Cl)cc3)ccc2OCC(=O)O)ccc(C(C)=O)c1O`: the IC50 is 4.5 nM.

Take `CCCc1c(OCCCC(=O)Nc2cc(CCCS(=O)(=O)c3ccc(Cl)cc3)ccc2OCC(=O)O)ccc(C(C)=O)c1O`: the IC50 is 50 nM.

As to `O=C(O)COc1ccc(CCCS(=O)(=O)c2ccc(Cl)cc2)cc1NC(=O)c1ccc(OCc2ccc3ccccc3n2)cc1`, the IC50 is 26 nM.

In the case of `O=C(O)COc1ccc(CCCS(=O)(=O)c2ccc(Cl)cc2)cc1NC(=O)c1cccc(OCc2ccc3ccccc3n2)c1` [drawing 21], the IC50 amounted to 57 nM.

Consider `O=C(O)COc1ccc(CCCS(=O)(=O)c2ccc(Cl)cc2)cc1NC(=O)c1cccc(OCc2ccc3ccccc3n2)c1` [drawing 22], for which the IC50 was 30 nM.

For another test, the system named is leukotriene D4. Briefly: in vitro antagonistic action to leukotriene D4 (LTD4-induced shrinkage of excised ileal segments). Conditions: guinea pig ileal segments, leukotriene D4 10^-8 M. Set-up: species or system Hartley type male guinea pigs. The method, then: as §1, §2
Molecule `CCCc1c(OCC(=O)Nc2cc(CCCS(=O)(=O)c3ccc(Cl)cc3)ccc2OCC(=O)O)ccc(C(C)=O)c1O` came in with an IC50 of 3800 nM.

Turning to `CCCc1c(OCCCC(=O)Nc2cc(CCCS(=O)(=O)c3ccc(Cl)cc3)ccc2OCC(=O)O)ccc(C(C)=O)c1O`, half-maximal inhibition (IC50) was put at 430 nM.

Turning to `O=C(O)COc1ccc(CCCS(=O)(=O)c2ccc(Cl)cc2)cc1NC(=O)c1ccc(OCc2ccc3ccccc3n2)cc1`, the half-inhibitory concentration (IC50) was determined as 370 nM.

Turning to `O=C(O)COc1ccc(CCCS(=O)(=O)c2ccc(Cl)cc2)cc1NC(=O)c1cccc(OCc2ccc3ccccc3n2)c1` [drawing 21], it took 1.3 nM to reach half-maximal inhibition (IC50).

Broadly, the IC50 is the concentration at which inhibition is half-maximal.
